# In PubChem BioAssay (NCI):
# “And” between values parts separate entries of the source, which are not always exact repeats. Equal values may be shown once.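 Assay format: 96-well plates, 48-hour exposure. At the GI50, growth is halved. TGI is the concentration that stops growth completely.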
# Columns and labels:
# Assay in all cases: growth of human tumour cells (NCI), 48 h
# [1] = system: UACC-62 melanoma
# [2] = system: MCF7 breast
# [3] = system: ACHN renal
# [4] = system: MDA-MB-231 breast
# [5] = system: TK-10 renal
# [6] = system: SNB-75 CNS
# [7] = system: HT29 colon
# [8] = system: NCI-H460 lung
# [9] = system: RPMI-8226 leukemia
# [10] = system: SK-OV-3 ovarian
Compound,GI50 [1],TGI [1],GI50 [2],TGI [2],GI50 [3],TGI [3],GI50 [4],TGI [4],GI50 [5],TGI [5],GI50 [6],TGI [6],GI50 [7],TGI [7],GI50 [8],TGI [8],GI50 [9],TGI [9],TGI [10],GI50 [10]
COC1O[C@@H]2C[C@H]3C(C)(C)CCC[C@]3(C)C3=CCCC1[C@@]32C (stereo not given in full),> 100 µM,> 100 µM,> 100 µM,> 100 µM,> 100 µM,> 100 µM,> 100 µM,> 100 µM,> 100 µM,> 100 µM,> 100 µM,> 100 µM,> 100 µM,> 100 µM,> 100 µM,> 100 µM,> 100 µM,> 100 µM,,
CC1(C)CCC[C@]2(C)[C@@H](C=O)C(C=O)=CC[C@@H]12,,34.7 µM,,31 µM,,30.6 µM,,23.1 µM,,74 µM,,,,30 µM,,,,31.4 µM,> 100 µM,
O=[N+]([O-])c1cc(S(=O)(=O)Oc2ccccc2)ccc1Cl,3.55 µM,13.5 µM,2.06 µM,4.31 µM,3.22 µM,9.05 µM,3.89 µM,16.2 µM,12.5 µM,25.1 µM,2.54 µM,6.5 µM,,,2.04 µM,4.06 µM,3.33 µM,8.29 µM,18.8 µM,6.21 µM
CN1CCN(Cc2ccc(NC(=O)c3[nH]ncc3Nc3ncnc4sc5c(c34)CCCC5)cc2)CC1,0.55 µM,1.93 µM,,,0.19 µM,0.969 µM,0.333 µM,1.45 µM,1.14 µM,2.4 µM,0.104 µM,1.44 µM,0.234 µM,1.92 µM,0.136 µM,1.05 µM,0.37 µM,1.04 µM,3.01 µM,0.198 µM
COc1ccc(C=O)c(NC(=O)C(C)C)c1,,> 100 µM,,,,> 100 µM,,,,> 100 µM,,> 100 µM,,> 100 µM,,> 100 µM,,66.3 µM,> 100 µM,
CCO/C=C1\N=C(c2ccccc2Br)OC1=O,,> 100 µM,,,,> 100 µM,,,,> 100 µM,,> 100 µM,,> 100 µM,,> 100 µM,,> 100 µM,> 100 µM,
Cc1nc2ccccc2c(/C=C/c2ccc(Br)cc2)c1C(=O)/C=C/c1ccccc1,1.54 µM,3.01 µM,0.895 µM,2.72 µM,1.64 µM,3.02 µM,1.84 µM,3.94 µM,2.15 µM,3.87 µM,1.73 µM,5.44 µM,1.48 µM,6.58 µM,,,1.38 µM,5.1 µM,4.15 µM,1.88 µM
CC(C)(C)CN1CCn2c(nc3c(N)nccc32)S1,13.7 µM,88.5 µM,3.97 µM,37 µM,7.45 µM,> 100 µM,19.8 µM,> 100 µM,16.6 µM,> 100 µM,51.5 µM,> 100 µM,,,4.25 µM,17.3 µM,36.1 µM,> 100 µM,81 µM,5.15 µM
C[C@@H]1O[C@@H](OC[C@H]2O[C@@H](OCCc3ccc(O)c(O)c3)[C@H](O)[C@@H](O)[C@@H]2OC(=O)/C=C/c2ccc(O)c(O)c2)[C@H](O)[C@H](O)[C@H]1O,> 100 µM,> 100 µM,,,> 100 µM,> 100 µM,> 100 µM,> 100 µM,> 100 µM,> 100 µM,> 100 µM,> 100 µM,,,> 100 µM,> 100 µM,12.2 µM,50.9 µM,> 100 µM,> 100 µM
CC(C)c1c2[nH]c3ccccc3c2c(C(C)C)c2[nH]c3ccccc3c12,,> 100 µM,,,,> 100 µM,,,,> 100 µM,,> 100 µM,,> 100 µM,,> 100 µM,,> 100 µM,> 100 µM,
CC1(C)OC2C(=O)C=C(COCc3ccccc3)C2O1 (stereo not given),,28.6 µM,,> 100 µM,,> 100 µM,,> 100 µM,,> 100 µM,,,,> 100 µM,,,,> 100 µM,22 µM,
CN(C)c1ccc(N=Nc2ccncc2)cc1,,> 100 µM,,> 100 µM,,> 100 µM,,> 100 µM,,> 100 µM,,,,> 100 µM,,> 100 µM,,> 100 µM,> 100 µM,
COc1ccc(C(Cl)=C(c2ccc(OCCN(C)C)cc2)c2ccc(OCCN(C)C)cc2)cc1,,3.16 µM,,,,4.72 µM,,,,31.1 µM,,3.29 µM,,3 µM,,3.32 µM,,3.83 µM,7.69 µM,
COc1ccc2c(c1OC)C(=O)OC2C1c2c(c([N+](=O)[O-])c3c(c2OC)OCO3)CCN1C (stereo not given),> 100 µM,> 100 µM,> 100 µM,> 100 µM,> 100 µM,> 100 µM,> 100 µM,> 100 µM,> 100 µM,> 100 µM,> 100 µM,> 100 µM,28.7 µM,> 100 µM,> 100 µM,> 100 µM,,,> 100 µM,> 100 µM
CCOC(=O)C(=O)Nc1cc(Cl)ccc1Cl,,> 100 µM,,,,> 100 µM,,,,> 100 µM,,> 100 µM,,> 100 µM,,> 100 µM,,> 100 µM,> 100 µM,
COC(CN1C=C(Sc2ccccc2)CC1)OC,,> 100 µM,,,,> 100 µM,,,,> 100 µM,,52.7 µM,,54.2 µM,,> 100 µM,,50.7 µM,93 µM,
C/C1=C\[C@@H](O)C(=O)/C=C/C=C\c2csc(n2)[C@@H](C)NC(=O)C[C@@]2(CC1)S(=O)SC(=O)[C@]2(C)O (stereo not given in full),,0.0487 µM,,0.0101 µM,0.00433 µM,0.038 µM and 0.0122 µM,,0.265 µM,0.0131 µM,0.861 µM and 0.138 µM,,0.0995 µM and 0.0219 µM,,,,0.27 µM and 0.327 µM,> 100 µM,> 100 µM,0.472 µM and 2.74 µM,0.181 µM
